Measured values taken from patent US6656927B1, “Ip3 receptor ligands” (Daiichi Pharmaceutical., Ltd., priority 1999, dated 2003).

How the values were obtained:
[1] = target: T1, IP3 binding domain (IBD, amino acid residues 1-885) of human IP3 receptor type 1 (Homo sapiens, UniProt Q14643); experiment: Surface plasmon resonance competitive binding assay on Compound 1-immobilized sensor tip; settings: for Kd: SPR competitive assay, Compound 2b re-assayed at IBD 1.76 nM; for Kd / binding of IBD to a Compound 1-immobilized tip: IBD 52.8 nM; for binding of IBD to a Compound 1-immobilized tip: competitive assay, FIG. 1B; for affinity relative to that of IP3: ratio of affinity to IBD versus IP3 (Table 1); for non-specific binding to the IP3 receptor in the competitive assay: IBD 1.76 nM, FIG. 1C
T1 construct: glutathione S-transferase (GST), joined by linker Leu-Val-Pro-Arg-Gly-Ser (N); His tag, joined by linker Leu-Val-Pro-Arg-Gly-Ser (C); made in house; host or cells: Escherichia coli BL-21 (DE3), vector pGEX2T
T1 sequence (Q14643 1-885 isoform Q14643-4): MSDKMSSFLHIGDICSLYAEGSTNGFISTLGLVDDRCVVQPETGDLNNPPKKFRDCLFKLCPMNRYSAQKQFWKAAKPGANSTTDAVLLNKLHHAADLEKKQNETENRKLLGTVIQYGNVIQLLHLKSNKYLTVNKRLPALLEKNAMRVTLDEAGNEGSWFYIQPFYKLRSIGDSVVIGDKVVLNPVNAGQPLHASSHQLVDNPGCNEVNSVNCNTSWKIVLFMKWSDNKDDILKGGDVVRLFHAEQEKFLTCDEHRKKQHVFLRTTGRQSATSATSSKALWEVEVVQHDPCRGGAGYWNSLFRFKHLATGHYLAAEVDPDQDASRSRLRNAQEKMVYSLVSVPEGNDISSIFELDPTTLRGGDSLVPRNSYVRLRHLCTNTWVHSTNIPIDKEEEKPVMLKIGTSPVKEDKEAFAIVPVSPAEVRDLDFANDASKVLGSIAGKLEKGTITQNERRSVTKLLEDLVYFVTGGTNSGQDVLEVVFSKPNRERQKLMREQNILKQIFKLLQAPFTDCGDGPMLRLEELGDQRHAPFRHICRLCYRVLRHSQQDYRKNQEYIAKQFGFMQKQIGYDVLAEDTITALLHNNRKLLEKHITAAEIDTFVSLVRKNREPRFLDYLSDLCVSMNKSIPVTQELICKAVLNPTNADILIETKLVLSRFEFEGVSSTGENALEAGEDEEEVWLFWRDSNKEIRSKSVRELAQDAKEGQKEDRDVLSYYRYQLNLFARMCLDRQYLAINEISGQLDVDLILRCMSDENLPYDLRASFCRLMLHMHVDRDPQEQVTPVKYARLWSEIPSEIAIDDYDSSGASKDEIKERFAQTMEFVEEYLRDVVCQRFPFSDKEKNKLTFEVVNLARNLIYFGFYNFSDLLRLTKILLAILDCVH
Source text: (1) Expression and Purification of Human IP3 Receptor Type 1
The IP3 binding domain (IBD, amino acid residues 1-885, Mignery, G. A., et al., EMBO J., 9, 3893, 1990) of human IP3 receptor type 1 (Yamada, N., et al., Biochem. J., 302, 781, 1994) was subcloned in pGEX2T (Amersham Pharmacia) for expression in bacteria. The N-terminus of IBD was fused to glutathione S-transferase using a linker sequence Leu-Val-Pro-Arg-Gly-Ser, whilst the C-terminus of IBD was labeled at His using a linker sequence Leu-Val-Pro-Arg-Gly-Ser. The protein was expressed in Escherichia coli BL-21 (DE3), and a recombinant protein was purified by using a resin on which Ni-NTA was immobilized (Amersham Pharmacia) and a HiTrap NHS-activated affinity column (Amersham Pharmacia) to which Compound 1 was bound. The purity of protein was calculated as 22% based on the result from SDS-PAGE.
(2) Measurement of Surface Plasmon Resonance
Surface plasmon resonance (SPR) was measured by using BIAcore 2000 (Amersham Pharmacia). After activation with NHS and EDC, 10 mM of Compound 1 in 100 mM borate buffer (pH 8.5) was bound to the surface of CM5 sensor tip, and inactivated with ethanolamine. In order to determine dissociation constants of IP3, Compound 1, Compound 2a, and Compound 2b, IBD purified beforehand was dissolved in a mobile phase buffer (10 mM HEPES, 150 mM NaCl, 3.4 mM EDTA and 0.005% Tween20, pH 7.4) together with each of the compounds. After each sample was injected, the tip surface was regenerated with 100 mM NaOH.
IBD bound to the tip in a concentration-dependent manner, however, non-specific binding with BSA (or glutathione S-transferase) was not observed. […] In order to determine affinity of IP3, Compound 1, Compound 2a and Compound 2b to IBD, a competitive assay was performed as follows. IBD (52.8 nM) was mixed with each of the aforementioned compounds at various concentrations. When the mixture was introduced onto the tip, a compound that competed with Compound 1 was […] (FIG. 1B). SPR obtained from this assay was applied to the equation to calculate dissociation constant (Kd) of each compound.
(3) Calculation of Dissociation Constants
For calculation of Kd of each compound, the resulting data plotted in FIGS. 1B and 1C were applied to the formula: 100[1−[X+Y+Kd−{X^2+2X (Kd−Y)+(Kd+Y)^2}^½]/2Y] wherein X and Y are a concentration of each compound and IBD concentration, respectively. […] Therefore, the IBD concentration was lowered to 1.76 nM, and the competitive assay for Compound 2b was performed again (FIG. 1C). The binding assay was carried out under a light condition and under a dark condition to verify that the binding was not affected by light.

IP3 receptor = experiment: Denaturation of the IP3 receptor by light irradiation: IP3-induced Ca2+ releasing activity in smooth muscle tissue specimen; settings: guinea pig portal vein smooth muscle, 1 μM compound, 1 μM IP3, FIG. 2C
Experimental: (1) Preparation of a Tissue Specimen
A strip of smooth muscle tissue prepared from a portal vein of male guinea pigs (weight 200-300 g) was fixed on a stainless steel wire to prepare a tissue specimen.
(2) Measurement of Ca^2+ Releasing Activity
The above specimen was incubated at 35° C. for 3.5 hours in a 40 μM solution of mag-fura-2 AM (Molecular Probes) as a Ca^2+ fluorescent indicator to have the mag-fura-2 AM taken up by the specimen. Subsequently, the specimen was incubated at 35° C. for 1.5 to 2 hours in a 40-60 μM solution of β-escin as a surfactant to remove the mag-fura-2 AM present other than in intracellular organelles.
The specimen was inserted into a glass capillary, and then initial change of fluorescence intensity ratio (fluorescence intensity at Ex. 340 nm, Em.480 nm/fluorescence intensity at Ex. 375 nm, Em. 480 nm, i.e., releasing rate), at addition of various solutions to the specimen, was fitted to an exponential curve to obtain a value as Ca^2+ releasing activity. As the fluorescence photometer, CAF-110 (JASCO) was used. […]
The tissue specimen prepared in the above (1) was added with 1 μM IP3, and its Ca^2+ releasing activity was measured (before irradiation). This specimen was removed from a fluorescence photometer after the measurement, and the inside of a capillary was filled with 1 μM solution of Compound 2b. […]

Compound	Kd [1]	binding of IBD to a Compound 1-immobilized tip [1]	affinity relative to that of IP3 [1]	non-specific binding to the IP3 receptor in the competitive assay [1]	Ca2+ releasing activity induced by IP3, addition of compound only (no laser irradiation) (IP3 receptor)	Ca2+ releasing activity induced by IP3, addition of compound and laser irradiation (IP3 receptor; 635 nm laser 3 minutes)
NCCCOP(=O)(O)O[C@@H]1[C@H](O)[C@H](O)[C@@H](OP(=O)(O)O)[C@H](OP(=O)(O)O)[C@H]1O [Compound 1]	1100 nM	inhibited	about ⅙			
CN(C)c1ccc(C(=C2C=CC(=[N+](C)C)C=C2)c2ccc(C(=O)NCCCOP(=O)(O)O[C@@H]3[C@H](O)[C@H](O)[C@@H](OP(=O)(O)O)[C@H](OP(=O)(O)O)[C@H]3O)cc2)cc1 [Compound 2b]	1.17 nM	inhibited	167 fold	specifically bound to the IP3 receptor	not reduced	remarkably reduced
O=P(O)(O)O[C@@H]1[C@H](O)[C@H](O)[C@@H](OP(=O)(O)O)[C@H](OP(=O)(O)O)[C@H]1O [IP3, D-Myo-inositol-1,4,5-trisphosphate]	195 nM	inhibited				
carboxymalachite green				non-specific binding was not observed		
